Measured values reported in patent US8093249B2, “Pyrazolo[1,5-A]pyrimidine-carbonyl-piperazine derivatives” (Convergence Pharmaceuticals Limited, priority 2008, dated 2012).
Read-outs that look alike come from different tables or passages of the source.

Target: T1, hCaV2.2 (Homo sapiens, UniProt Q00975)
T1 construct: expressed in transfected cells; plasmids pCIN5-hCaV2.2, pCIH-hCaV β3, pCIP-α2δ1
Experiment: hCaV2.2 assay (IonWorks planar array electrophysiology, HEK293 stable cell line)
Type: cell-based
Settings: inhibition of current elicited by the 1st depolarizing pulse by 50%, HEK293 cells expressing human CaV2.2 α/β3/α2δ1
Text: Compounds of the invention may be tested for in vitro biological activity in the hCaV2.2 assay in accordance with the following studies:
Stable cell lines expressing the human CaV2.2 α (α1B) subunit, along with the human β3 and α2δ1 auxillary subunits were created following sequential transfection and selection of human embryonic kidney (HEK293) cells. […] Initially HEK293 cells were transfected with two plasmid vectors for expression of the hCaV2.2 α subunit (pCIN5-hCaV2.2 which carries a neomycin resistance marker) and the hCaV β3 subunit (pCIH-hCaV β3 which carries a hygromycin resistance marker). […] These clonal cell lines were assessed for Cav2.2 α/β3-mediated current expression using the IonWorks planar array electrophysiology technology (described below). […] Expression of all three subunits within this cell line was continuously maintained by the inclusion of G418 (0.4 mg ml^−1), hygromycin (0.1 mg ml^−1) and puromycin (0.62 μg ml^−1). Cells were maintained at 37° C. in a humidified environment containing 5% CO2 in air.
Cells were grown to 30-60% confluence in T175 flasks and maintained at 30° C. for 24 hours prior to recording. […] Lifted cells were suspended in 10 ml of extracellular buffer. Cell suspension was then placed into a 15 ml tube and centrifuged for 2 minutes at 700 rpm. After centrifugation, the supernatant was removed and the cell pellet was resuspended in 4.5 ml of extracellular solution.
Currents were recorded at room temperature (21-23° C.) using the IonWorks planar array electrophysiology technology (Molecular Devices Corp.). Stimulation protocols and data acquisition were carried out using a microcomputer (Dell Pentium 4). In order to determine planar electrode hole resistances (Rp), a 10 mV, 160 ms potential difference was applied across each hole. These measurements were performed before cell addition. After cell addition a seal test was performed prior to antibiotic (amphotericin) circulation to achieve intracellular access. Leak subtraction was conducted in all experiments by applying a 160 ms hyperpolarizing (10 mV) prepulse 200 ms before the test pulses to measure leak conductance. Test pulses stepping from the holding potential (VH) of −90 mV to +10 mV were applied for 20 ms and repeated 10 times at a frequency of 10 Hz. In all experiments, the test pulse protocol was performed in the absence (pre-read) and presence (post-read) of a compound. Pre- and post-reads were separated by a compound addition followed by a 3-3.5 min incubation.
The intracellular solution contained the following (in mM): K-gluconate 120, KCl 20 mM, MgCl2 5, EGTA 5, HEPES 10, adjusted to pH 7.3. Amphotericin was prepared as 30 mg/ml stock solution and diluted to a final working concentration of 0.2 mg ml^−1 in intracellular buffer solution. The extracellular solution contained the following (in mM): Na-gluconate 120, NaCl 20, MgCl2 1, HEPES 10, BaCl2 5, adjusted to pH 7.4.
Finally the compounds were diluted 1:100 in external solution resulting in a final DMSO concentration of 1%.
Paired comparisons between pre-compound and post-compound additions were used to determine the inhibitory effect of each compound. […] In addition the use-dependent inhibitory properties of the compounds were determined by assessing the effect of compounds on the 10th versus 1st depolarizing pulse. The ratio of the 10th over 1st pulse was determined in the absence and presence of drug and the % use-dependent inhibition calculated.
Compounds were tested in the form as described in the Examples. […] Variations in pUD30 and pIC50 values may arise between tests.

[1] = read-out: mean pIC50 value (tonic pIC50) (converted)

T1 sequence (Q00975 whole entry): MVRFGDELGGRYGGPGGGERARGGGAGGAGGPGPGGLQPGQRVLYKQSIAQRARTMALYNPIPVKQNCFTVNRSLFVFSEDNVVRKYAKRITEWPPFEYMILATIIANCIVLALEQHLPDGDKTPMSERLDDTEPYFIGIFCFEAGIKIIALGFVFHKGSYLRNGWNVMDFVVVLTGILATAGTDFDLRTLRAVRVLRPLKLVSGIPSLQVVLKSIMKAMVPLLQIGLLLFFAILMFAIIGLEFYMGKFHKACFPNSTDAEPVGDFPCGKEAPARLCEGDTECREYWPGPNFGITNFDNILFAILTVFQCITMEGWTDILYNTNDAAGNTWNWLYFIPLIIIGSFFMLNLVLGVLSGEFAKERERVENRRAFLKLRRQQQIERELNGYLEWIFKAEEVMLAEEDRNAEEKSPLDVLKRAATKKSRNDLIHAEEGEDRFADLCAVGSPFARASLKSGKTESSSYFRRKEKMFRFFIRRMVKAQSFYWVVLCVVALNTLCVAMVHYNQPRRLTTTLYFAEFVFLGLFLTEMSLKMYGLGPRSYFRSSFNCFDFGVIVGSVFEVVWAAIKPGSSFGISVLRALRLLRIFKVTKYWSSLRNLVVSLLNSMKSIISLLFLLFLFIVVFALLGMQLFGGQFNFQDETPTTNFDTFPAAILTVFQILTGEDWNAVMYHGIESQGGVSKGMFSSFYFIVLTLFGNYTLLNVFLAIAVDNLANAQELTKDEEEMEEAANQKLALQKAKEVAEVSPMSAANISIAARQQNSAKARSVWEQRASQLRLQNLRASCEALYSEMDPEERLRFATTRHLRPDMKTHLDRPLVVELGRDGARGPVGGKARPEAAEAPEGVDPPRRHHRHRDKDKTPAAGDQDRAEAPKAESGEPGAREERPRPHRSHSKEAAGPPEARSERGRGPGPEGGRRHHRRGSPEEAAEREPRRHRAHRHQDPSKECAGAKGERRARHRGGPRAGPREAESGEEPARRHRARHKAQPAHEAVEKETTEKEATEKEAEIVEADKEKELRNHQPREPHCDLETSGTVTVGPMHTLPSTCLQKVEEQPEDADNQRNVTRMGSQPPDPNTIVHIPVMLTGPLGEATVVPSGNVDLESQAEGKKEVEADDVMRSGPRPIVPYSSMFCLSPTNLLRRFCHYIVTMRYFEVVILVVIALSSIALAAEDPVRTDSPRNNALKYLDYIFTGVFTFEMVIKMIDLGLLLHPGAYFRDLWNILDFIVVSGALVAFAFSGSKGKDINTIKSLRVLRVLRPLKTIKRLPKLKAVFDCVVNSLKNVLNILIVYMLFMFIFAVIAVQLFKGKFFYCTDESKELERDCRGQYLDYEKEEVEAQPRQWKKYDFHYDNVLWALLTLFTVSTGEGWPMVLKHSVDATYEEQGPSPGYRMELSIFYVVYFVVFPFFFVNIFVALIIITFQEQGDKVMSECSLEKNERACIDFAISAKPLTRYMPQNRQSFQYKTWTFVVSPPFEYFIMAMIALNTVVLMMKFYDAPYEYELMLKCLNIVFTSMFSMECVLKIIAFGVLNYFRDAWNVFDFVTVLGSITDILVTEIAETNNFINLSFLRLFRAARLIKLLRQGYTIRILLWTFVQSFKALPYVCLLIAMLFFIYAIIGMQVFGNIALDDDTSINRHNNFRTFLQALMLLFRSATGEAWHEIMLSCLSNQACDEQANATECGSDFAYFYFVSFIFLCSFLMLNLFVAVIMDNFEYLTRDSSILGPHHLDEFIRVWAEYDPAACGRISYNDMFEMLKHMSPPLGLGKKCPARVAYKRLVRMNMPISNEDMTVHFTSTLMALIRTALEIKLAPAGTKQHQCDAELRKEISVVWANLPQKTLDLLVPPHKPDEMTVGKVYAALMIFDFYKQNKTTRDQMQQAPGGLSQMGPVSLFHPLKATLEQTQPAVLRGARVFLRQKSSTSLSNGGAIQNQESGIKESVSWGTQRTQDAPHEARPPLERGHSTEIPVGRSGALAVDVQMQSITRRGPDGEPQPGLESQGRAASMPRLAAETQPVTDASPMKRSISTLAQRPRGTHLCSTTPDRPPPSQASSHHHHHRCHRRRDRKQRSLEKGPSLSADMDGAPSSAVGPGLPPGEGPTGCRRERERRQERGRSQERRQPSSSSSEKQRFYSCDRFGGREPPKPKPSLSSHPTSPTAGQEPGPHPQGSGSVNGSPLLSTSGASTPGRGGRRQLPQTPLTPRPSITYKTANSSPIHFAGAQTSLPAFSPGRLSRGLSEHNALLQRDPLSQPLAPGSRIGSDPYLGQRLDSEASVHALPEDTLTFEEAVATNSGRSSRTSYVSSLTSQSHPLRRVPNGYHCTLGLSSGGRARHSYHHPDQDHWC
T1 sequence (P54284 whole entry partner): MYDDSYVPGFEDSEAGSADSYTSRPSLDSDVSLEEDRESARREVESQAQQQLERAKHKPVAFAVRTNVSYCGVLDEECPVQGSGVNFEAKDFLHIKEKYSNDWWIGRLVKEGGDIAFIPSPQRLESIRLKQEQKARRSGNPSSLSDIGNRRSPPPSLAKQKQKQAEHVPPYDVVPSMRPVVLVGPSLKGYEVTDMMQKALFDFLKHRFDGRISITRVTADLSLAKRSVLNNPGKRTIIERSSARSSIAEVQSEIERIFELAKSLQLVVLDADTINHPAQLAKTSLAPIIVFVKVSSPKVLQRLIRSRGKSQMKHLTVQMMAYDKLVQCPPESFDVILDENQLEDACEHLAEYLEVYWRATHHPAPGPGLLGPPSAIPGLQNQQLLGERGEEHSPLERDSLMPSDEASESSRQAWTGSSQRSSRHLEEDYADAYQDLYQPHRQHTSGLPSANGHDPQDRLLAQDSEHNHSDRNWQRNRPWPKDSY
T1 sequence (P54289 25-946 partner limits assumed): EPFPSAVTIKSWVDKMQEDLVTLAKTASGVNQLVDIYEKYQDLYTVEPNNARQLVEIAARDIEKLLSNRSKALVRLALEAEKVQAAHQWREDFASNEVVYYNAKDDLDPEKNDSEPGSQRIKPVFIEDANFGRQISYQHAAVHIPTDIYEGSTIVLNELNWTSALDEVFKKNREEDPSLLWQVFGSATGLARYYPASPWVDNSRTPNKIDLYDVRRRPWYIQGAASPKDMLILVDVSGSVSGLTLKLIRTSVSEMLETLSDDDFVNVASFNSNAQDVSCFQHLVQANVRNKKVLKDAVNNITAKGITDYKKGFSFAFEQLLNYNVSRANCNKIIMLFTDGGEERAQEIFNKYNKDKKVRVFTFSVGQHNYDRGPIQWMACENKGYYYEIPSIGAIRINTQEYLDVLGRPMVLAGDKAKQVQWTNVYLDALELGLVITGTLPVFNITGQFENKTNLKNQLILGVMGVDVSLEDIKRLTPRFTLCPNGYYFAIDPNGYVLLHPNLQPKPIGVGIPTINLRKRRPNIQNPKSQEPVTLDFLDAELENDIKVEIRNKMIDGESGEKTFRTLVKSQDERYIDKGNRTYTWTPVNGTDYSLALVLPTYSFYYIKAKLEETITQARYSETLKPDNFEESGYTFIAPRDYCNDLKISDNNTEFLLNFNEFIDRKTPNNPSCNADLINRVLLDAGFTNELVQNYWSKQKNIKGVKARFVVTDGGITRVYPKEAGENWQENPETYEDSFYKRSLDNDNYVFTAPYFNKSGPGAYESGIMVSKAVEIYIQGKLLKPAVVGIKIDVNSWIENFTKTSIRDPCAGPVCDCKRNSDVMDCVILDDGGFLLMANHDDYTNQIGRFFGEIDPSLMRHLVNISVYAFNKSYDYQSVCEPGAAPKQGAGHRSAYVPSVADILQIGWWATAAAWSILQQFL
T1 sequence (P54289 947-1103 partner limits assumed): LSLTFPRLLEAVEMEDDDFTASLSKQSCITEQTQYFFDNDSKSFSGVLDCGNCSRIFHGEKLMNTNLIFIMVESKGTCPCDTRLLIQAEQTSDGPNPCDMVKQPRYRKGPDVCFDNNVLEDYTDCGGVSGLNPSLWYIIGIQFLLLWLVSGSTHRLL

Compound	IC50 [1]	IC50 (mean pIC50 value (tonic pIC50))
C[C@H]1CN(C(=O)c2cnn3cccnc23)CCN1S(=O)(=O)c1ccc(C(F)(F)F)cc1 [Example 4, 3-[((3S)-3-Methyl-4-{[4-(trifluoromethyl)phenyl]sulfonyl}-1-piperazinyl)carbonyl]pyrazolo[1,5-a]pyrimidine]	≥ 31.6 µM	
Cc1cc(C#N)ccc1S(=O)(=O)N1CCN(C(=O)c2cnn3cccnc23)[C@@H](C)C1 [Example 5, 3-Methyl-4-{[(3S)-3-methyl-4-(pyrazolo[1,5-a]pyrimidin-3-ylcarbonyl)-1-piperazinyl]sulfonyl}benzonitrile]	≥ 31.6 µM	
C[C@H]1CN(S(=O)(=O)c2ccc(OC(F)(F)F)cc2)CCN1C(=O)c1cnn2cccnc12 [Example 11, 3-{[(2S)-2-methyl-4-({4-[(trifluoromethyl)oxy]phenyl}sulfonyl)-1-piperazinyl]carbonyl}pyrazolo[1,5-a]pyrimidine]	≥ 31.6 µM	
C[C@H]1CN(S(=O)(=O)c2ccc(C(F)(F)F)cc2)CCN1C(=O)c1cnn2cccnc12 [Example 2, 3-[((2S)-2-Methyl-4-{[4-(trifluoromethyl)phenyl]sulfonyl}-1-piperazinyl)carbonyl]pyrazolo[1,5-a]pyrimidine]	≥ 10 µM	
Cc1ccc(C(F)(F)F)cc1S(=O)(=O)N1CCN(C(=O)c2cnn3cccnc23)CC1 [Example 19, 3-[(4-{[2-methyl-5-(trifluoromethyl)phenyl]sulfonyl}-1-piperazinyl)carbonyl]pyrazolo[1,5-a] pyrimidine]	≥ 31.6 µM	
C[C@@H]1CN(C(=O)c2cnn3cccnc23)CCN1S(=O)(=O)c1ccc(OC(F)(F)F)cc1 [Example 21, 3-{[(3R)-3-methyl-4-({4-[(trifluoromethyl)oxy]phenyl}sulfonyl)-1-piperazinyl]carbonyl}pyrazolo[1,5-a] pyrimidine]	≥ 31.6 µM	
C[C@H]1CN(S(=O)(=O)c2ccc(C(F)(F)F)cc2)CCN1C(=O)c1cnn2cc(F)cnc12 [Example 9, 6-Fluoro-3-[((2S)-2-methyl-4-{[4-(trifluoromethyl)phenyl]sulfonyl}-1-piperazinyl)carbonyl]pyrazolo[1,5-a]pyrimidine]	≥ 10 µM	
C[C@@H]1CN(S(=O)(=O)c2ccc(OC(F)(F)F)cc2)CCN1C(=O)c1cnn2cccnc12 [Example 22, 3-{[(2R)-2-methyl-4-({4-[(trifluoromethyl)oxy]phenyl}sulfonyl)-1-piperazinyl]carbonyl}pyrazolo[1,5-a] pyrimidine]	≥ 31.6 µM	
Cc1nn2cccnc2c1C(=O)N1CCN(S(=O)(=O)c2ccc(C(F)(F)F)cc2)C[C@@H]1C [Example 20, 2-methyl-3-[((2S)-2-methyl-4-{[4-(trifluoromethyl)phenyl]sulfonyl}-1-piperazinyl)carbonyl]pyrazolo[1,5-a] pyrimidine]	≥ 10 µM	
O=C(c1cnn2cccnc12)N1CCN(S(=O)(=O)c2ccc(OC(F)(F)F)cc2)CC1 [Example 8, 3-{[4-({4-[(trifluoromethyl)oxy]phenyl}sulfonyl)-1-piperazinyl]carbonyl}pyrazolo[1,5-a]pyrimidine]	≥ 31.6 µM	
Cc1ccc(C(F)(F)F)cc1S(=O)(=O)N1CCN(C(=O)c2cnn3cccnc23)[C@@H](C)C1 [Example 18, 3-[((2S)-2-methyl-4-{[2-methyl-5-(trifluoromethyl)phenyl]sulfonyl}-1-piperazinyl)carbonyl]pyrazolo[1,5-a] pyrimidine]	≥ 31.6 µM	
Cc1cc(C#N)ccc1S(=O)(=O)N1CCN(C(=O)c2cnn3cc(F)cnc23)[C@@H](C)C1 [Example 10, 4-({(3S)-4-[(6-fluoropyrazolo[1,5-a]pyrimidin-3-yl)carbonyl]-3-methyl-1-piperazinyl}sulfonyl)-3-methylbenzonitrile]		≥ 31.6 µM
Cc1cc(C#N)ccc1S(=O)(=O)N1CCN(C(=O)c2cnn3cc(Cl)cnc23)[C@@H](C)C1 [Example 16, 4-({(3S)-4-[(6-chloropyrazolo[1,5-a]pyrimidin-3-yl)carbonyl]-3-methyl-1-piperazinyl}sulfonyl)-3-methylbenzonitrile]	≥ 10 µM	
C[C@@H]1CN(C(=O)c2cnn3cccnc23)CCN1S(=O)(=O)c1ccc(C(F)(F)F)cc1 [Example 3, 3-[((3R)-3-Methyl-4-{[4-(trifluoromethyl)phenyl]sulfonyl}-1-piperazinyl)carbonyl]pyrazolo[1,5-a]pyrimidine]	≥ 31.6 µM	
Cc1cnc2c(C(=O)N3CCN(S(=O)(=O)c4ccc(C(F)(F)F)cc4)CC3)cnn2c1 [Example 6, 6-Methyl-3-[(4-{[4-(trifluoromethyl)phenyl]sulfonyl}-1-piperazinyl)carbonyl]pyrazolo[1,5-a]pyrimidine]	≥ 31.6 µM	
Cc1cc(C)n2ncc(C(=O)N3CCN(S(=O)(=O)c4ccc(C(F)(F)F)cc4)CC3)c2n1 [Example 14, 5,7-dimethyl-3-[(4-{[4-(trifluoromethyl)phenyl]sulfonyl}-1-piperazinyl)carbonyl]pyrazolo[1,5-a] pyrimidine]	≥ 31.6 µM	
Cc1cc(C#N)ccc1S(=O)(=O)N1CCN(C(=O)c2c(C)nn3cccnc23)[C@@H](C)C1 [Example 24, 3-methyl-4-({(3S)-3-methyl-4-[(2-methylpyrazolo[1,5-a]pyrimidin-3-yl)carbonyl]-1-piperazinyl}sulfonyl)benzonitrile]	≥ 31.6 µM	
Cc1cnc2c(C(=O)N3CCN(S(=O)(=O)c4ccc(C#N)cc4C)C[C@@H]3C)cnn2c1 [Example 23, 3-methyl-4-({(3S)-3-methyl-4-[(6-methylpyrazolo[1,5-a]pyrimidin-3-yl)carbonyl]-1-piperazinyl}sulfonyl)benzonitrile]	≥ 31.6 µM	
O=C(c1cnn2cccnc12)N1CCN(S(=O)(=O)c2ccc(C(F)(F)F)cc2)CC1 [Example 1, 3-[(4-{[4-(Trifluoromethyl)phenyl]sulfonyl}-1-piperazinyl)carbonyl]pyrazolo[1,5-a]pyrimidine]	≥ 31.6 µM	
C[C@H]1CN(C(=O)c2cnn3cccnc23)CCN1S(=O)(=O)c1ccc(OC(F)(F)F)cc1 [Example 15, 3-{[(3S)-3-methyl-4-({4-[(trifluoromethyl)oxy]phenyl}sulfonyl)-1-piperazinyl]carbonyl}pyrazolo[1,5-a] pyrimidine]	≥ 31.6 µM	
C[C@@H]1CN(S(=O)(=O)c2ccc(C(F)(F)F)cc2)CCN1C(=O)c1cnn2cccnc12 [Example 7, 3-[((2R)-2-Methyl-4-{[4-(trifluoromethyl)phenyl]sulfonyl}-1-piperazinyl)carbonyl]pyrazolo[1,5-a]pyrimidine]	≥ 31.6 µM	
